Results from patent publication US10314841B2, “Substituted pyrazoles as IRAK inhibitors” (Merck Patent GmbH, priority 2014, dated 2019).
Read-outs that look alike come from different tables or passages of the source.

Assays:
[1] = target: T1, IRAK1 (His-TEV-IRAK1 (194-712)) (Homo sapiens, UniProt P51617); assay: IRAK1 enzymatic assay; type: biochemical; details: human recombinant His-TEV-IRAK1, ATP 1 μM, 3 hours at 30° C., FlashPlate
T1 construct: His-TEV-IRAK1 (194-712); His (N); TEV cleavage site (N)
T1 sequence (P51617 194-712): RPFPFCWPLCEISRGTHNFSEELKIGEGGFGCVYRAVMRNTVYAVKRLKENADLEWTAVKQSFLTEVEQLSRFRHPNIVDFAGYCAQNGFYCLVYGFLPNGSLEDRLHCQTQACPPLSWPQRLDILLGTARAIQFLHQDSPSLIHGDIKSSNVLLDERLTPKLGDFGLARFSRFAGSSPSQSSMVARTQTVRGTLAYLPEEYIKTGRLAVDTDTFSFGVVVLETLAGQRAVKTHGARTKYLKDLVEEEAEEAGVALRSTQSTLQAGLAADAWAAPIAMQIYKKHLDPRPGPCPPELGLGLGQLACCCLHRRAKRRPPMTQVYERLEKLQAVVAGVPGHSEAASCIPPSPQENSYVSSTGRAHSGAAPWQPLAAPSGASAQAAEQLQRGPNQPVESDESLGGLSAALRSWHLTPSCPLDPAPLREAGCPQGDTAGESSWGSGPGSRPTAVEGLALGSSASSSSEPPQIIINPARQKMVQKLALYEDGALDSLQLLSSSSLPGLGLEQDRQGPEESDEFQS
Experimental: IRAK1 Enzymatic Assay IRAK1 is a human purified recombinant enzyme (His-TEV-IRAK1 (194-712)). In this assay, IRAK-1 hydrolyses ATP and autophosphorylates. Measurement of IRAK-1 inhibition was performed in streptavidin coated 384 well FlashPlate (PerkinElmer #SM[…]). His-TEV-IRAK-1 (15 ng/well), ATP (1 μ[…]]ATP 0.25 μCi/well) and compounds in DMSO (range of concentrations from 20 μM to 1 nM) or controls (2% DMSO) were incubated for 3 hours at 30° C. in assay buffer: Hepes pH7.0 50 mM, Fatty acid-free BSA 0.1%, Dithiothreitol DTT 2 mM, MgCl2 10 mM, EGTA 0.5 mM, Triton-X-100 0.01%. Kinase reaction was stopped by addition of EDTA. Supernatant was discarded, plates were washed three times with 150 mM NaCl and radioactivity was then measured in a Microbeta Trilux reader.

[2] = target: T2, IRAK4 (His-TEV-IRAK4) (Homo sapiens, UniProt Q9NWZ3); assay: IRAK4 enzymatic assay; type: biochemical; details: human recombinant His-TEV-IRAK4, ATP 2 μM, STK1-biotin peptide 300 nM, 3 hours at 30° C., FlashPlate
T2 construct: His (N); TEV cleavage site (N)
T2 sequence (Q9NWZ3 1-460): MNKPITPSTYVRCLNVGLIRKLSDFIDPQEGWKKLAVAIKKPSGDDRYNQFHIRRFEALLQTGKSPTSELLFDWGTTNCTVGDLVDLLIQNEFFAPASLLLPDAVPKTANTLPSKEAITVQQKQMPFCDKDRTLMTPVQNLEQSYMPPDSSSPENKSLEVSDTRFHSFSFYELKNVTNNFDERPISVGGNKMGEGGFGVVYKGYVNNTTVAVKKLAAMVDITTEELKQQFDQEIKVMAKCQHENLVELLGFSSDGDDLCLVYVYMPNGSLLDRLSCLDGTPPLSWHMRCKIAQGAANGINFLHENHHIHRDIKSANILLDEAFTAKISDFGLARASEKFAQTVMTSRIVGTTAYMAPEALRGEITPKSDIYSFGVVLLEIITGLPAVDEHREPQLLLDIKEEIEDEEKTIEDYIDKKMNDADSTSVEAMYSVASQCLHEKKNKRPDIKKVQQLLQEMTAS
Experimental: IRAK4 Enzymatic Assay IRAK4 is a human purified recombinant enzyme (His-TEV-[…] (194-712). IRAK4 hydrolyses ATP, autophosphorylates and phosphorylates a Serine/Threonine generic peptidic substrate (STK: 61 ST1BLC from CisBio International based in Bagnols/Cèze FR). Measurement of IRAK-4 inhibition was performed in streptavidin coated 384 well FlashPlate (PerkinElmer #SM[…]). His-TEV-IRAK4 (20 ng/well), ATP (2 μM, [^33P]ATP 0.25 μCi/well), STK1-biotin peptide (300 nM) and compounds in DMSO (range of concentrations from 20 μM to 1 nM) or controls (2% DMSO) were incubated for 3 hours at 30° C. in assay buffer: Hepes pH7.0 50 mM, Fatty acid-free BSA 0.1%, Dithiothreitol DTT 2 mM, MgCl2 10 mM, EGTA 0.5 mM, Tween-20 0.01%, MnCl2 5 mM. Kinase reaction was stopped by addition of EDTA. Supernatant was discarded, plates were washed three times with 150 mM NaCl and radioactivity was then measured in a Microbeta Trilux reader.

[3] = test system: TLR7 induced IL-6 secretion in human PBMC's; assay: TLR7 induced IL-6 in human PBMC's; type: cell-based; details: read-out: TLR7 induced IL-6 secretion in hPBMC's (IC50)
Experimental: TLR7 Induced IL-6 in Human PBMC's Human PBMC assay was used as one of the functional assays to monitor the activity of IRAK1 and IRAK4 small molecule inhibitors on TLR7 induced IL-6 secretion in human mononuclear cells (PBMC's). Human PBMCs were prepared from buffy coats (whole blood enriched with leukocytes and platelets) obtained from healthy volunteers used either fresh or frozen are plated in assay media (RPMI+2% P/S/L-glu+10% HI-FBS) and pre-treated with compounds in DMSO/media (range of concentrations from 25 uM to 0.4 nM) or controls (0.25% DMSO) for 30 minutes at 37° C. in assay media. Following pre-treatment with IRAK1 and IRAK4 inhibitors, PBMC's were stimulated with TLR7 specific ligand (2 uM) overnight (16-18 hrs) at 37° C. After incubation supernatant was transferred to 384 well PE AlphaPlate-384 (6005350) and IL-6 is quantified using Perkin Elmer IL-6 Alpha LISA kit (A[…]). Plates were read on an Envision® plate reader with Alpha Technology®.

[4] = human PBMC, TLR7 specific ligand 2 uM overnight, IL-6 Alpha LISA

| SMILES | IC50 [1] [nM] | IC50 [2] [nM] | IC50 [3, 4] [nM] | IC50 ([3]; Homo sapiens, PBMC) [nM] |
| --- | --- | --- | --- | --- |
| C=CC(=O)N[C@H]1CCC[C@H](n2cc(-c3cnc(-c4cccc(-c5cnn(C)c5)c4)nc3)cn2)C1 [Compound 38, N-[(1S,3S)-3-(4-{2-[3-(1-Methyl-1H-pyrazol-4-yl)-phenyl]-pyrimidin-5-yl}-pyrazol-1-yl)-cyclohexyl]-acrylamide] | 100 to 1000 | < 100 | 100 to 1000 |  |
| C=CS(=O)(=O)N[C@@H]1CCC[C@H](n2cc(-c3cnc(-c4cccc(-c5cnn(C)c5)c4)nc3)cn2)C1 (racemic) [Compound 33] | < 100 | < 100 | 100 to 1000 |  |
| Cn1cc(-c2cccc(-c3ncc(-c4cnn(C5CCCC(C(=O)O)C5)c4)cn3)c2)cn1 (mixture of isomers) [Compound 41, Lithium 3-(4-{2-[3-(1-Methyl-1H-pyrazol-4-yl)-phenyl]-pyrimidin-5-yl}-pyrazol-1-yl)-cyclohexanecarboxylate] | 1000 to 20000 | 100 to 1000 |  | 1000 to 20000 |
| Cn1cc(-c2cccc(-c3ncc(-c4cnn(C5CCCC(NC(=O)OC(C)(C)C)C5)c4)cn3)c2)cn1 (stereo not drawn) [Compound 9, [3-(4-{2-[3-(1-Methyl-1H-pyrazol-4-yl)-phenyl]-pyrimidin-5-yl}-pyrazol-1-yl)-cyclohexyl]-carbamic acid tert-butyl ester] | < 100 | < 100 | 1000 to 20000 |  |
| C=CS(=O)(=O)N1CCCC(n2cc(-c3cnc(-c4cccc(-c5cnn(C)c5)c4)nc3)cn2)C1 (stereo not drawn) [Compound 17, 5-[1-(1-Ethenesulfonyl-piperidin-3-yl)-1H-pyrazol-4-yl]-2-[3-(1-methyl-1H-pyrazol-4-yl)-phenyl]-pyrimidine] | < 100 | < 100 | < 100 |  |
| Cn1cc(-c2cccc(-c3ncc(-c4cnn(C5CCC[C@@H](NC6CCOC6)C5)c4)cn3)c2)cn1 (stereo partly drawn) [Compound 12, [3-Cis-(4-{2-[3-(1-Methyl-1H-pyrazol-4-yl)-phenyl]-pyrimidin-5-yl}-pyrazol-1-yl)-cyclohexyl]-(tetrahydro-furan-3-yl)-amine] | < 100 | < 100 | 100 to 1000 |  |
| Cn1cc(-c2cccc(-c3ncc(-c4cnn([C@H]5CCC[C@@H](NS(C)(=O)=O)C5)c4)cn3)c2)cn1 (single isomer, unassigned) [Compound 28] | 100 to 1000 | 100 to 1000 | 1000 to 20000 |  |
